# Where “and” joins values, the source holds several entries; their conditions need not be identical. Equal entries are not always repeated.
# Columns and labels:
# CB2R [1] = biological target: T1, CB2R (Rattus norvegicus, UniProt Q9QZN9); assay: Quantitative autoradiography, rat spleen cryosections; assay type: binding
# T1 construct: from tissue; host or cells: rat spleen: cryosections in vitro, and spleen of living Wistar rats in PET
# T1 sequence (Q9QZN9 1-360): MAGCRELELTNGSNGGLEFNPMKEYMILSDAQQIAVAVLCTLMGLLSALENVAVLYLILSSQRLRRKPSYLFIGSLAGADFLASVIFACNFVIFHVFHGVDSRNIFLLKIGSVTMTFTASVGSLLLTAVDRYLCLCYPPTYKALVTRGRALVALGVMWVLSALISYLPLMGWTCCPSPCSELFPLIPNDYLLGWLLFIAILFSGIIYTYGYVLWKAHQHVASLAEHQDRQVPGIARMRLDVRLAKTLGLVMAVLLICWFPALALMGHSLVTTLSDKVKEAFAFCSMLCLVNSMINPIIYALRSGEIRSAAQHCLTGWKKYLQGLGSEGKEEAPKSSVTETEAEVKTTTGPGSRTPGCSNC
# Experimental: For quantitative autoradiography in different species, 10 µm cryosections from mouse, rat and piglet spleen were thawed, dried, and pre-incubated with incubation buffer for 10 min, dried under an airstream. Subsequently, the incubation buffer containing [^18F]JHU94620-d8 (59–137 GBq µmol^−1, 1.7–3.6 nM) was added alone or together with indicated concentrations of the reference compound. Additionally, to assess the non-specific binding of [^18F]JHU94620-d8 to cryosections GW405833 was added instead of the reference compound. After 90 min, cryosections were washed two times for 2 min with ice-cold 50 mM Tris HCl, pH7.4 and 10 s in ddH2O and subsequently dried under an airstream. For the calculation of the radioactivity concentration, 5 µl of five serial 1:2 dilutions of the incubation buffer with [^18F]JHU94620-d8 were air-dried on a microscopic slide. For binding studies in rat spleen cryosections by autoradiography with HLM-derived radiometabolites of [^18F]JHU94620-d8 obtained from the radiometabolite assay, the samples were added to the incubation buffer to a final activity concentration of 0.2 MBq mL^−1 and protocol was followed as described above. Subsequently, the slides were exposed to a phosphor imager plate. After scanning at high sensitivity and a 12.5 µm resolution with a CR35 Bio image plate scanner (Raytest Isotopenmessgeräte GmbH, Straubenhardt, Germany). The analyses of the autoradiographic images were performed with the AIDA 5.1 software (Elysia-Raytest, Angleur, Belgium) resulting in a resolution of 12.617 pixel × 12.616 pixel per µm^2 (1 voxel = 1592 µm^3 ≙ 1.59 10^–3 µg wet tissue) and inhibition curves were created with GraphPad Prism 9.5.1 (GraphPad Inc., La Jolla, CA).
# The KD values were calculated with GraphPad Prism according to the modified Cheng-Prusoff method for homologous competitive binding studies, where the KD = Ki = IC50—[radioligand] and the Bmax = specific binding / [radioligand] / ((KD + [radioligand])) (Motulsky and Neubig [2000]), assuming a total protein content of 8.2% (1.3 10^–4 µg protein per voxel) in the spleen (Zaia et al. [2000]) or by determining the protein concentration of the cell membrane lysates using a BCA assay (Thermo Scientific, Braunschweig, Germany). The fractional occupancy defined as occupied binding sites per total binding sites is used to describe the binding fraction specifically bound to CB2R compared to unspecific binding, where [L] is the concentration of the ligand at the start of incubation.
# CB2R [2] = biological target: T1, CB2R; assay type: in vivo; details: male, Wistar, rat, in vivo
# Experimental: The dynamic biodistribution of the radiotracer in the lower body of rats was assessed by small animal PET (Nanoscan, Mediso, Hungary) over 60 min with a subsequently T1-weighted MR. Anaesthetized (2% isoflurane, carrier gas mixture of 40% air and 60% O2) male Wistar rats (body weight: 205–308 g, age: 8–10 weeks, no gender-specific differences were taken into account) were kept during imaging on a heated animal bed to sustain body temperature and were pretreated with vehicle (DMSO:Kolliphore EL:0.9% saline, 1:2:7), JHU94620-d8 (1.5 mg kg^−1 bodyweight) or with GW405833 (5 mg kg^−1 bodyweight) 5 min prior tracer application ([^18F]JHU94620-d8: 7.7–28.2 MBq, 0.4 to 3.2 nmol kg^−1 bodyweight), whereby all injections were administered intravenously. For the evaluation of the hCB2R-specific binding of the radiotracer in the brain, female Wistar rats (n = 6, 253–269 g, age: 8 month) were used carrying stereotactically injected constructs of AAV2/7-CaMKII0.4-intron-hCB2R(D80N) in the right striatum and AAV2/7-CaMKII0.4-intron-3flag-eGFP in the control/contralateral striatum (Vandeputte et al. [2011]). 21–26 MBq corresponding to 0.2 to 2.0 nmol kg^−1 bodyweight radiotracer were injected, whereas in displacement studies 5 mg kg^−1 bodyweight GW405833 was administered 20 min after the radiotracer (each n = 3). The PET scans were performed six months after the stereotactic injections of the AAV2/7-constructs.
# The acquisitions were performed in normal mode and a coincidence mode 1–5. For subsequent dynamic reconstructions list mode data were sorted into sinograms (12 × 10 s, 6 × 30 s, 5 × 60 s and 10 × 300 s). The frames were reconstructed by Ordered Subset Expectation Maximization applied to 3D (OSEM3D) sinograms corrected for decay and attenuation (4 iterations, 6 subsets and a voxel size of 0.4 mm^3) with the Nucline software v2.01 (Mediso, Budapest, Hungary). Analyses of reconstructed studies were performed with PMOD software (v4.205, PMOD Technologies LLC, Fällanden, Switzerland) and results are expressed in standardized uptake values (SUVs) or normalized to a reference region (SUVr).
compound,measurement,setting,value
[2H]C([2H])([18F])C([2H])([2H])C([2H])([2H])C([2H])([2H])n1c(C)c(C)s/c1=N\C(=O)C1C(C)(C)C1(C)C [[^18F]JHU94620-d8],Kd,"CB2R [1]; KD values determined by autoradiography, rat and mouse spleen (range over both species)",740 to 1980 pM
same,Kd,"CB2R [1]; KD, rat spleen cryosection, homologous displacement autoradiography, n = 3",740 pM
same,specific binding to CB2R,"CB2R [1]; rat spleen cryosections, blocking with 10 µM GW405833 or self-blocking",48 ± 6% and 48%
same,Bmax,CB2R [1]; spleen of rats,0.08 pmol mg^−1 protein
same,SUVr(spleen-to-blood) at late time points,CB2R [2],about 1.5
same,spleen SUVmean at late time points,CB2R [2],about 0.5 SUVmean
